According to BindingDB's records for patent US12291519 (Idorsia Pharmaceuticals, 2025):

What was measured:
Galectin-3 = Galectin-3 (Homo sapiens, UniProt P17931); assay: Biological Assay
Method: (§1) The inhibitory activity of compounds is determined in competitive binding assays. […] Finally, 25 μL/well of ABTS substrate is added.

Galectin-1 = Galectin-1 (Homo sapiens, UniProt P09382); assay: Biological Assay
Method: as §1

Galectin-1, sequence (P09382 whole entry): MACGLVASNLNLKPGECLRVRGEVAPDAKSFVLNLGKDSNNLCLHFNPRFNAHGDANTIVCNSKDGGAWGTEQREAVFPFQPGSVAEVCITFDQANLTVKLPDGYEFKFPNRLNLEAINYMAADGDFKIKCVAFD
Galectin-3, sequence (P17931 whole entry): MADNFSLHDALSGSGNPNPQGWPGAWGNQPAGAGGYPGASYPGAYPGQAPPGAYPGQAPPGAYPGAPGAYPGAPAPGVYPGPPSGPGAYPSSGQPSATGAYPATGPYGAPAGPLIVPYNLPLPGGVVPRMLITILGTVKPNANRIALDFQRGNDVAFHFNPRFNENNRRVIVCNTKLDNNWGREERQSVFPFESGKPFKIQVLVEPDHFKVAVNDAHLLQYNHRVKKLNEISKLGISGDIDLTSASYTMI

Row | SMILES | IC50 (Galectin-3) [nM] | IC50 (Galectin-1) [nM]
1 | Cc1nc(CN(C(=O)[C@@H]2O[C@H](CO)[C@H](O)[C@H](n3cc(-c4cc(F)c(F)c(F)c4)nn3)[C@H]2O)[C@H]2CCCC[C@@H]2O)c[nH]1 [US12291519, Example 14] | 564 | 40600
2 | Cn1cnc(CN(C(=O)[C@@H]2O[C@H](CO)[C@H](O)[C@H](n3cc(-c4cc(F)c(F)c(F)c4)nn3)[C@H]2O)[C@H]2CCCC[C@@H]2O)c1 [US12291519, Example 19] | 403 | 37600
3 | Cn1ccc(CN(C(=O)[C@@H]2O[C@H](CO)[C@H](O)[C@H](n3cc(-c4cc(F)c(F)c(F)c4)nn3)[C@H]2O)[C@H]2CCCC[C@@H]2O)n1 [US12291519, Example 24] | 294 | 25900
4 | O=C([C@@H]1O[C@H](CO)[C@H](O)[C@H](n2cc(-c3cc(F)c(Cl)c(F)c3)nn2)[C@H]1O)N(Cc1ccccc1C(F)(F)F)[C@H]1CCCC[C@@H]1O [US12291519, Example 67] | 42 | 610
5 | CO[C@@H]1[C@@H](n2cc(-c3cccc(F)c3)nn2)[C@@H](O)[C@@H](CO)O[C@H]1C(=O)N(c1cc(Cl)cc(Cl)c1)[C@H]1CCCC[C@@H]1O [US12291519, Example 72] | 31 | 58
6 | CO[C@@H]1[C@@H](n2cc(-c3cccc(F)c3)nn2)[C@@H](O)[C@@H](CO)O[C@H]1C(=O)N(c1cc(Br)cc(C#N)c1)[C@H]1CCCC[C@@H]1O [US12291519, Example 77] | 37 | 140
7 | CO[C@@H]1[C@@H](n2cc(-c3cc(F)cc(F)c3)nn2)[C@@H](O)[C@@H](CO)O[C@H]1C(=O)N(c1cc(Cl)cc(Cl)c1)[C@H]1CCCC[C@@H]1O [US12291519, Example 78] | 26 | 192
8 | CO[C@@H]1[C@@H](n2cc(-c3cc(F)c(F)c(F)c3)nn2)[C@@H](O)[C@@H](CO)O[C@H]1C(=O)N(c1ccc(Cl)c(Cl)c1)[C@H]1CCCC[C@@H]1O [US12291519, Example 98] | 33 | 169
9 | CO[C@@H]1[C@@H](n2cc(-c3cc(F)c(F)c(F)c3)nn2)[C@@H](O)[C@@H](CO)O[C@H]1C(=O)N(c1cc(Br)cc(C#N)c1)[C@H]1CCCC[C@@H]1O [US12291519, Example 112] | 8 | 150
10 | CO[C@@H]1[C@@H](n2cc(-c3cc(F)cc(Cl)c3)nn2)[C@@H](O)[C@@H](CO)O[C@H]1C(=O)N(c1cc(Cl)cc(C#N)c1)[C@H]1CCCC[C@@H]1O [US12291519, Example 133] | 22 | 184
11 | CO[C@@H]1[C@@H](n2cc(-c3cc(F)c(Cl)c(F)c3)nn2)[C@@H](O)[C@@H](CO)O[C@H]1C(=O)N(c1cc(Cl)cc(Cl)c1)[C@H]1CCCC[C@@H]1O [US12291519, Example 156] | 14 | 1380
12 | CO[C@@H]1[C@@H](n2cc(-c3cc(F)c(Cl)c(F)c3)nn2)[C@@H](O)[C@@H](CO)O[C@H]1C(=O)N(c1cc(Cl)cc(C#N)c1)[C@H]1CCCC[C@@H]1O [US12291519, Example 157] | 19 | 709
13 | CO[C@@H]1[C@@H](n2cc(-c3cc(F)c(Cl)c(Cl)c3)nn2)[C@@H](O)[C@@H](CO)O[C@H]1C(=O)N(c1cc(Cl)cc(C#N)c1)[C@H]1CCCC[C@@H]1O [US12291519, Example 169] | 14 | 333
14 | CO[C@@H]1[C@@H](n2cc(-c3ccc(C(F)(F)F)c(F)c3)nn2)[C@@H](O)[C@@H](CO)O[C@H]1C(=O)N(c1cc(Cl)cc(Cl)c1)[C@H]1CCCC[C@@H]1O [US12291519, Example 180] | 11 | 1200
15 | CO[C@@H]1[C@@H](n2cc(-c3cc(F)c(Cl)cc3F)nn2)[C@@H](O)[C@@H](CO)O[C@H]1C(=O)N(c1cc(Cl)cc(C#N)c1)[C@H]1CCCC[C@@H]1O [US12291519, Example 182] | 35 | 267
16 | COc1cc(-c2cn([C@H]3[C@@H](O)[C@@H](CO)O[C@@H](C(=O)N(c4cc(Cl)cc(Cl)c4)[C@H]4CCCC[C@@H]4O)[C@@H]3OC)nn2)cc(F)c1F [US12291519, Example 183] | 9 | 516
17 | COc1cc(-c2cn([C@H]3[C@@H](O)[C@@H](CO)O[C@@H](C(=O)N(c4cc(Cl)cc(C#N)c4)[C@H]4CCCC[C@@H]4O)[C@@H]3OC)nn2)ccc1Cl [US12291519, Example 184] | 29 | 282
18 | COc1cc(C#N)cc(N(C(=O)[C@@H]2O[C@H](CO)[C@H](O)[C@H](n3cc(-c4ccc(Cl)c(Cl)c4)nn3)[C@H]2OC)[C@H]2CCCC[C@@H]2O)c1 [US12291519, Example 188] | 44 | 1120
19 | O=C([C@@H]1O[C@H](CO)[C@H](O)C(n2cc(-c3cc(F)c(F)c(F)c3)nn2)[C@H]1OCCO)N(c1cc(Cl)cc(Cl)c1)[C@H]1CCCC[C@@H]1O (stereo partly drawn) [US12291519, Example 196] | 21 | 161
